# Experimental data as given in publication PMC7226602, “Exploring Biased Agonism at FPR1 as a Means to Encode Danger Sensing” (Cells, 2020).
# Where a SMILES comes first, the peptide text is derived from it. Where no end group is shown, it is not given here. The star is where a group is joined. For = O=C*
# B1: formylated pentapeptide fMIVIL from Listeria monocytogenes (peptide)
# peptide: For-MIVIL
# B2: synthetic agonist W-peptide (WKYMVm) (peptide)
# peptide: WKYMVM
# B3: formylated peptide corresponding to the N-terminus of human NADH:ubiquinone oxidoreductase core subunit 6 (MT-ND6; fMMYALF) (peptide)
# peptide: For-MMYALF
# B4: gG-2p20 peptide derived from the secreted glycoprotein sgG-2 of herpes simplex virus type 2 (HSV-2) (peptide)
# peptide: GLLWVEVGGEGPGPT
# modifications: not fully specified
# B5: formylated peptide corresponding to the N-terminus of human NADH:ubiquinone oxidoreductase core subunit 2 (MT-ND2; fMNPLAQ) (peptide)
# peptide: For-MNPLAQ
# B6: acetylated peptide Ac2-26 corresponding to the N-terminus of human annexin A1 (peptide)
# peptide: Ac-AMVSEFLKQAWFIENEEQEYVQTVK
# B7: formylated peptide corresponding to the N-terminus of human cytochrome b (CYTB; f…) (peptide)
# peptide: For-MTPMRKTNPLMKLIN
# Columns and labels:
# human FPR1 [1] = target: T1, human FPR1 (Homo sapiens, UniProt P21462); assay: cell-based
# T1 construct: expressed in transfected cells
# T1 sequence (P21462 1-350): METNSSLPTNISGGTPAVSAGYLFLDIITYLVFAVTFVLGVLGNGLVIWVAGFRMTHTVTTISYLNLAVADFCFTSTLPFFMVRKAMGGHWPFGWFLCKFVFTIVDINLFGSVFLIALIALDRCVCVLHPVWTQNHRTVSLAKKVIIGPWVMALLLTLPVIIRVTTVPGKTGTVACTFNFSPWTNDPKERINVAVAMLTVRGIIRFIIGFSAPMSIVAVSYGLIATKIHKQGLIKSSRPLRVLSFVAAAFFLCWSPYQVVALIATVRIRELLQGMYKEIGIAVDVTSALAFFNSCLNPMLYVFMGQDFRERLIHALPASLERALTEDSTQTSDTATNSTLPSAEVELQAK
# human FPR1 [2] = target: T1, human FPR1; assay: HTRF-based quantification of MAPK/ERK phosphorylation (ERK1/2 Thr202/Tyr204); type: cell-based; conditions: HeLa-FPR1 cells serum-starved 2 h, agonist 5 min, 37 °C, HTRF phospho-ERK1/2, four-parameter fit, Hill 1, mean and SEM, at least 5 independent measurements; for EC50: read-out: ERK1/2 Activation logEC50 (converted)
# [3] = solvent DMSO; as indicated by the manufacturer; ref manufacturer; cited from earlier work
# human FPR1 [4] = target: T1, human FPR1; assay: Flow cytometric analysis of agonist-induced receptor internalization; type: cell-based; conditions: HeLa-FPR1 cells; for EC50: agonist 15 min, 37 °C, flow cytometry of surface FLAG-FPR1 (M1 antibody), mean and SEM, 6 independent measurements, NR = no response, read-out: Internalization logEC50 (converted)
# [5] = target: human formyl peptide receptor 1 (FPR1), N-terminally FLAG-tagged (human) (UniProt P21462)
Molecule,EC50 (human FPR1 [1]),EC50 (human FPR1 [2]),"EmaxA of inhibition of forskolin-induced cAMP formation, HeLa-FPR1 cells (HTRF, 30 min; normalised to forskolin) (fraction of the maximum system response) [5]","logEC50 of inhibition of forskolin-induced cAMP formation, HeLa-FPR1 cells (HTRF, 30 min) (log M (unit not given)) [5]",other results
CC[C@H](C)[C@H](NC(=O)[C@H](Cc1ccccc1)NC(=O)[C@H](Cc1c[nH]c2ccccc12)NC(=O)[C@H](C)NC(=O)[C@H](CCC(N)=O)NC(=O)[C@H](CCCCN)NC(=O)[C@H](CC(C)C)NC(=O)[C@H](Cc1ccccc1)NC(=O)[C@H](CCC(=O)O)NC(=O)[C@H](CO)NC(=O)[C@@H](NC(=O)[C@H](CCSC)NC(=O)[C@H](C)NC(C)=O)C(C)C)C(=O)N[C@@H](CCC(=O)O)C(=O)N[C@@H](CC(N)=O)C(=O)N[C@@H](CCC(=O)O)C(=O)N[C@@H](CCC(=O)O)C(=O)N[C@@H](CCC(N)=O)C(=O)N[C@@H](CCC(=O)O)C(=O)N[C@@H](Cc1ccc(O)cc1)C(=O)N[C@H](C(=O)N[C@@H](CCC(N)=O)C(=O)N[C@H](C(=O)N[C@H](C(=O)N[C@@H](CCCCN)C(=O)O)C(C)C)[C@@H](C)O)C(C)C [Ac2-26] (Ac-AMVSEFLKQAWFIENEEQEYVQTVK-OH),49000 nM,74100 nM,–,–,–
CC[C@H](C)[C@H](NC(=O)[C@H](CC(C)C)NC(=O)[C@H](CCCCN)NC(=O)[C@H](CCSC)NC(=O)[C@H](CC(C)C)NC(=O)[C@@H]1CCCN1C(=O)[C@H](CC(N)=O)NC(=O)[C@@H](NC(=O)[C@H](CCCCN)NC(=O)[C@H](CCCNC(=N)N)NC(=O)[C@H](CCSC)NC(=O)[C@@H]1CCCN1C(=O)[C@@H](NC(=O)[C@H](CCSC)NC=O)[C@@H](C)O)[C@@H](C)O)C(=O)N[C@@H](CC(N)=O)C(=O)O [CYTB] (For-MTPMRKTNPLMKLIN-OH),3020 nM,7760 nM,–,–,–
COc1cc(/C=N/NC(=O)c2ccc3c(c2)OCO3)ccc1OCc1ccccc1 [FPRA14],–,–,–,–,"cAMP Formation logEC50 (human FPR1 [1]; HeLa-FPR1 cells, 5 µM forskolin + 500 µM IBMX with agonist, 30 min, 37 °C, HTRF, […], mean and SEM, at least 7 independent measurements): −5.94 0.19; Solubility [3]: 100 mM; ERK1/2 Activation logEC50 (human FPR1 [2]): −6.06 0.05; agonist-induced FPR1 internalization (decrease of cell surface-associated FPR1 pool), in words (human FPR1 [4]; 15 min after agonist addition, flow cytometry): did not elicit detectable internalization"
CSCC[C@H](NC=O)C(=O)N[C@@H](CC(N)=O)C(=O)N1CCC[C@H]1C(=O)N[C@@H](CC(C)C)C(=O)N[C@@H](C)C(=O)N[C@@H](CCC(N)=O)C(=O)O [MT-ND2] (For-MNPLAQ-OH),2040 nM,6170 nM,–,–,–
CSCC[C@H](NC=O)C(=O)N[C@@H](CCSC)C(=O)N[C@@H](Cc1ccc(O)cc1)C(=O)N[C@@H](C)C(=O)N[C@@H](CC(C)C)C(=O)N[C@@H](Cc1ccccc1)C(=O)O [MT-ND6] (For-MMYALF-OH),74.1 nM,2.19 nM,–,–,EC50 (human FPR1 [4]): 776 nM
CC[C@H](C)[C@H](NC(=O)[C@H](CCSC)NC=O)C(=O)N[C@H](C(=O)N[C@H](C(=O)N[C@@H](CC(C)C)C(=O)O)[C@@H](C)CC)C(C)C [fMIVIL] (For-MIVIL-OH),0.871 nM,1.55 nM,–,–,EC50 (human FPR1 [4]): 79.4 nM
"CSCC[C@H](NC=O)C(=O)N[C@@H](CC(C)C)C(=O)N[C@@H](Cc1ccccc1)C(=O)O [fMLF, formyl-methionyl-leucyl-phenylalanine]",–,–,–,–,Solubility [3]: 4000 µg/mL
CC(C)C[C@H](NC(=O)CN)C(=O)N[C@@H](CC(C)C)C(=O)N[C@@H](Cc1c[nH]c2ccccc12)C(=O)N[C@H](C(=O)N[C@@H](CCC(=O)O)C(=O)N[C@H](C(=O)NCC(=O)NCC(=O)N[C@@H](CCC(=O)O)C(=O)NCC(=O)N1CCC[C@H]1C(=O)NCC(=O)N1CCC[C@H]1C(=O)N[C@H](C(=O)O)[C@@H](C)O)C(C)C)C(C)C [gG2p20] (H-GLLWVEVGGEGPGPT-OH),–,708 nM,–,–,"EC50 (human FPR1 [1]; HeLa-FPR1 cells, 5 µM forskolin + 500 µM IBMX with agonist, 30 min, 37 °C, HTRF, […], mean and SEM, at least 7 independent measurements, read-out: cAMP Formation logEC50 (converted)): 437 nM; Solubility [3]: 2000 µg/mL"
B1,–,–,0.82,-9.06,"EmaxA of agonist-induced FPR1 internalization, HeLa-FPR1 cells (flow cytometry, 15 min; normalised to 10^-4 M W-peptide) (fraction of the maximum system response) [5]: 0.97; logEC50 of agonist-induced FPR1 internalization, HeLa-FPR1 cells (flow cytometry, 15 min) (log M (unit not given)) [5]: -7.1"
B2,–,–,0.82,-8.96,"EmaxA of agonist-induced FPR1 internalization, HeLa-FPR1 cells (flow cytometry, 15 min; normalised to 10^-4 M W-peptide) (fraction of the maximum system response) [5]: 1; logEC50 of agonist-induced FPR1 internalization, HeLa-FPR1 cells (flow cytometry, 15 min) (log M (unit not given)) [5]: -7.66"
B3,–,–,0.66,-7.13,"EmaxA of agonist-induced FPR1 internalization, HeLa-FPR1 cells (flow cytometry, 15 min; normalised to 10^-4 M W-peptide) (fraction of the maximum system response) [5]: 0.63; logEC50 of agonist-induced FPR1 internalization, HeLa-FPR1 cells (flow cytometry, 15 min) (log M (unit not given)) [5]: -6.11"
B4,–,–,0.68,-6.36,–
B5,–,–,0.63,-5.69,–
B6,–,–,0.63,-4.31,–
B7,–,–,0.39,-5.52,–
